Test results published in patent publication US20250215400A1, “CRYOPRESERVATION MEDIUM COMPRISING HYALURONIC ACID, USE THEREOF AND METHOD OF CRYOPRESERVATION” (CONTIPRO A.S., priority 2022, published 2025).

What was measured:
hMSC cells = test: total number of hMSC cells (CaSy cell counter) after cryopreservation, thawing and two weeks of cultivation; assay type: cell-based, human; settings: Example 1, cryopreservation medium in α-MEM
Procedure: FIG. 1 represents the total number of hMSC cells measured using CaSy cell counter (OMNI Life Science GmbH) after two weeks of cultivation. The data are shown as averages and the standard deviation is shown as an error bar.
Mesenchymal stem cell cultures were cryopreserved. The method of cryopreservation consists of the addition of a cryopreservation medium to the sample and the subsequent […] cryopreservation through a slow freeze at a rate of 1° C./min, for preservation of the sample at low temperatures (−80 C to −196C). The cryopreserved stem cell culture is revived after preservation by thawing in a water bath at 37° C. for 2 minutes and the cryopreservation medium is subsequently washed away from the cellular suspension by centrifugation. The cells are then seeded in a cultivation bottle and cultivated for two weeks.
For cryopreservation, 4 different combinations of cryoprotective medium containing hyaluronic acid with MW 1,500,000 g/mol in two concentrations of 0.1 and 0.2% (w/v) with an addition of 5 or 3% DMSO (v/v) dissolved in a standard α-MEM medium were used. The composition containing 5, 3 or 10% (v/v) DMSO in the medium served as a cryopreservation control.
The mesenchymal stem cells hMSC cultures were cryopreserved. […]

stem cells = settings: room temperature; Pal et al., 2012; Tunçer et al., 2018; cited from earlier work

C[S+](C)[O-] [DMSO, dimethyl sulfoxide]
stem cell survival and proliferation efficiency (hMSC cells): lower MSCs survival and proliferation efficiency
concentration range at which an effect on viability, morphology, cell adhesion and differentiation was observed (stem cells): 0.1-1 % (v/v)
